Results as given in article PMC7887271, “Fast acting allosteric phosphofructokinase inhibitors block trypanosome glycolysis and cure acute African trypanosomiasis in mice” (Nature Communications, 2021).
“Also recorded” adds a separate entry of the source.

Columns and labels:
TbPFK [1] = biological target: T1, TbPFK (Trypanosoma brucei brucei, UniProt O15648); assay: Surface plasmon resonance (SPR); assay type: binding
T1 construct: made in house; host or cells: Escherichia coli C41 (pET28a, codon optimised gene)
T1 sequence (O15648 1-487): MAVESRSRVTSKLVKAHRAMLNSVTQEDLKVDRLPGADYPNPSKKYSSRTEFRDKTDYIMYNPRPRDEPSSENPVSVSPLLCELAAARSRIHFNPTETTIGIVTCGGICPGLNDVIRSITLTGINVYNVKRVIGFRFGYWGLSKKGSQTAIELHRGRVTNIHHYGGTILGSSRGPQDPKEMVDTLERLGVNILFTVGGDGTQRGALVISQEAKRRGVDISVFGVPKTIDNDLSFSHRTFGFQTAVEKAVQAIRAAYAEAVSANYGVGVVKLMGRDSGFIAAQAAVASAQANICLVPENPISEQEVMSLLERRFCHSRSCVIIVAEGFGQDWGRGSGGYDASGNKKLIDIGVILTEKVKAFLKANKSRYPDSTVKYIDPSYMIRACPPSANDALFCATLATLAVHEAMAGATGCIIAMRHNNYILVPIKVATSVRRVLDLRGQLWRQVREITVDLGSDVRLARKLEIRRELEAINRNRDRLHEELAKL
Description: SPR measurements were performed using a BIAcore T200 instrument (GE Healthcare). Active N-terminally His6-tagged TbPFK surfaces were generated using a His-tag capture and coupling onto Ni^2+‐nitrilotriacetic acid sensor chips. Following Ni^2+ priming (30 s injection of 500 μM NiCl2 at 5 μl min^−1), dextran surface carboxylate groups were minimally activated by an injection of 0.2 M EDC; 50 mM NHS at 5 μl min^−1 for 240 s. TbPFK (at concentrations between 10 and 400 nM), in 10 mM NaH2PO4, pH 7.5; 150 mM NaCl; 50 μM EDTA; 0.05% surfactant p20, was captured via the hexa-His-tag and simultaneously covalently stabilised to between 1500 RU and 3100 RU, by varying the contact time. Immediately following the capture/stabilisation a single 15 s injection of 350 mM EDTA and 50 mM imidazole in 10 mM NaH2PO4, pH 7.5; 150 mM NaCl; 50 mM EDTA; 0.05% surfactant p20, at 30 μl min^−1, was used to remove non-covalently bound protein, followed by a 180 s injection of 1 M H2N(CH2)2OH, pH 8.5 at 5 μl min^−1.
Active N-terminally His6-tagged TbPFK surfaces were generated using a His-tag capture and coupling method described previously (2). The surface density on the SPR chip = 1500 RU. A 1:1 binding model has been fitted to each sensorgram trace (black). All measurements were at 25 °C. […] Source data are provided as a Source Data file.

TbPFK [2] = biological target: T1, TbPFK; assay: PYK/LDH linked enzyme assay to determine inhibitor mode of action; assay type: biochemical
Description: TbPFK inhibition was studied using an enzyme assay, in which production of ADP by TbPFK was coupled to the reactions of pyruvate kinase and lactate dehydrogenase: the conversion of pyruvate to lactate and NADH to NAD^+, is monitored by reduction of UV absorbance at 340 nm.
Parasite enzyme kinetic data were measured using N-terminally His6-tagged TbPFK expressed in Escherichia coli C41 cells, using a codon optimised gene inserted in a pET28a vector (Supplementary Methods 1). Recombinant human PFKs were expressed in PFK-deficient Saccharomyces cerevisiae. PFK enzyme inhibition was measured using an ADP-Glo^TM assay (Promega) in a 96-well plate format (Supplementary Methods 2.1), using a Spectramax© M5 Multimode Plate Reader to measure luminescence values which were converted to ADP concentrations. IC50 values were determined using a sigmoidal curve fitting algorithm in Kaleidagraph 4 (Supplementary Fig. 1). Mode of action studies were carried out using a linked enzyme assay coupling the forward reaction of TbPFK to the M1 isoform of human pyruvate kinase followed by lactate dehydrogenase. The change in UV absorbance at 340 nm resulting from the conversion of NADH to NAD^+ was measured at 25 °C in ‘kinetic mode’ on a Spectramax© M5 Multimode plate reader. […] An alternative linked enzyme assay was developed to control for the potential inhibitory activity of ATP on human PFK (Supplementary Methods 2.3).
The mechanism of TbPFK inhibition was studied using a coupled enzyme assay in which production of ADP by TbPFK was coupled to the reaction of human M1 isoform pyruvate kinase (hPYK), which converts ADP and phosphoenolpyruvate (PEP) to ATP and pyruvate. The reaction is further coupled to lactate dehydrogenase (LDH), which converts pyruvate and NADH to lactate and NAD^+, respectively. NADH conversion was monitored by measuring changes in NADH absorbance.
A 2.5x ‘assay mix’ was made containing 4.8 mM PEP, 1.2 mM NADH , 20 U/ml PYK, 33 U/ml LDH, 0 to 3mM ATP in assay buffer (10 mM MgCl2, 100 mM KCl, 50 mM TEA, 10% glycerol, 0.005% Tween-20, pH 7.4). For measuring activity 40 µl of assay mix was plated in a clear, non-binding 96 well plate (Greiner Bio-One cat. no. 655901) with 4-10 µl of the PFK sample (typically a 0.1 mg/ml stock) to be tested and 40 – 46 µl of assay buffer. The reaction was started upon addition of 10 µl of up to 6 mM F6P (0.6 mM final concentration). Absorbance at 340 nm was read at 20 second intervals for 10 minutes at 25 °C in ‘kinetic mode’ on a Spectramax© M5 Multimode plate reader. The gradient of the linear section of raw plots of NADH absorbance over time were used to obtain initial velocities.

## CN(C)CCn1ccc2c(ccn2Cc2ccc(Cl)c(Cl)c2)c1=O [CTCB-405, 1-[(3,4-Dichlorophenyl)methyl]-5-[2-(dimethylamino)ethyl] pyrrolo[3,2-c]pyridin-4-one]
TbPFK [1]
  koff: 0.079 s⁻¹
  kon: 960000 M⁻¹ s⁻¹
TbPFK [1]; 25 °C
  Kd: 82 nM
TbPFK [2]
  mode of inhibition with respect to ATP and F6P: not competitive with either ATP or F6P; also recorded: not competitive with either substrate
TbPFK [2]; CTCB-405 at 0.5 x IC50
  Vmax, Michaelis Menten best fit versus ATP: 36.5 µmol/min/mg
  Vmax, Michaelis Menten best fit versus F6P: 38.7 µmol/min/mg
TbPFK [2]; CTCB-405 at 1x IC50
  Vmax, Michaelis Menten best fit versus ATP: 33.8 µmol/min/mg
  Vmax, Michaelis Menten best fit versus F6P: 33.6 µmol/min/mg
TbPFK [2]; CTCB-405 at 2 x IC50
  Vmax, Michaelis Menten best fit versus ATP: 26.6 µmol/min/mg
  Vmax, Michaelis Menten best fit versus F6P: 34.0 µmol/min/mg
